Results: publication PMC11316798, “Signaling by a bacterial phytochrome histidine kinase involves a conformational cascade reorganizing the dimeric photoreceptor” (Nature Communications, 2024)

T1: PsBphP1 (Pseudomonas syringae group genomosp. 3, UniProt Q885D3)
T1 construct: gene bphP
T1 sequence (Q885D3 1-745): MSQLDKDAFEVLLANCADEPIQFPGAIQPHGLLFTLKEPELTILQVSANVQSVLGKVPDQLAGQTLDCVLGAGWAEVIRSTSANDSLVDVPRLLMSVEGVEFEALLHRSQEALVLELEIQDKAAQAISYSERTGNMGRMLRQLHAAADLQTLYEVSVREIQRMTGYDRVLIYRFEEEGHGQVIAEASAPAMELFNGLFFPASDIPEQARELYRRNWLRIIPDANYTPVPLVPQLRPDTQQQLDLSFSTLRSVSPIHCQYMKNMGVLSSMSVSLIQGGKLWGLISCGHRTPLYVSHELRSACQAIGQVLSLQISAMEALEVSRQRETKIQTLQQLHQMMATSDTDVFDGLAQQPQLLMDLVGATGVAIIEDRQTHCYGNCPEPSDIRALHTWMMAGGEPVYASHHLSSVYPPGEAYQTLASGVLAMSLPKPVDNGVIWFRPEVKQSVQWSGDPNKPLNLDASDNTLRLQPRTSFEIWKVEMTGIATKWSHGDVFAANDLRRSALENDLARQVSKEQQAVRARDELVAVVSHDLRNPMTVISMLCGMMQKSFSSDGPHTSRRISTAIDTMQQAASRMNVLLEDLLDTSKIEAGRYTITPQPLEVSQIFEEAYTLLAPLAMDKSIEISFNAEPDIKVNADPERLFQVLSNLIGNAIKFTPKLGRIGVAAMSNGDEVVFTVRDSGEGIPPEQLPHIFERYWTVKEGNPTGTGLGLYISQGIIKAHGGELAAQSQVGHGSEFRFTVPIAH

B1: Pseudomonas syringae bacteriophytochrome photoreceptor BphP1 (PsBphP1), full length, assembled with biliverdin (natural protein)
chain: GMSQLDKDAFEVLLANCADEPIQFPGAIQPHGLLFTLKEPELTILQVSANVQSVLGKVPDQLAGQTLDCVLGAGWAEVIRSTSANDSLVDVPRLLMSVEGVEFEALLHRSQEALVLELEIQDKAAQAISYSERTGNMGRMLRQLHAAADLQTLYEVSVREIQRMTGYDRVLIYRFEEEGHGQVIAEASAPAMELFNGLFFPASDIPEQARELYRRNWLRIIPDANYTPVPLVPQLRPDTQQQLDLSFSTLRSVSPIHCQYMKNMGVLSSMSVSLIQGGKLWGLISCGHRTPLYVSHELRSACQAIGQVLSLQISAMEALEVSRQRETKIQTLQQLHQMMATSDTDVFDGLAQQPQLLMDLVGATGVAIIEDRQTHCYGNCPEPSDIRALHTWMMAGGEPVYASHHLSSVYPPGEAYQTLASGVLAMSLPKPVDNGVIWFRPEVKQSVQWSGDPNKPLNLDASDNTLRLQPRTSFEIWKVEMTGIATKWSHGDVFAANDLRRSALENDLARQVSKEQQAVRARDELVAVVSHDLRNPMTVISMLCGMMQKSFSSDGPHTSRRISTAIDTMQQAASRMNVLLEDLLDTSKIEAGRYTITPQPLEVSQIFEEAYTLLAPLAMDKSIEISFNAEPDIKVNADPERLFQVLSNLIGNAIKFTPKLGRIGVAAMSNGDEVVFTVRDSGEGIPPEQLPHIFERYWTVKEGNPTGTGLGLYISQGIIKAHGGELAAQSQVGHGSEFRFTVPIAH
modifications: biliverdin (BV) covalently linked via a thioether linkage to Cys16
notes: PsBphP1, bacteriophytochrome histidine kinase of Pseudomonas syringae, full-length polypeptide, residues 1-745; One molecule for both light states: Pr (dark-adapted) and Pfr (red-light irradiated, ~80% Pfr); the state is named in each assay; Dimer as Pr; dimer-tetramer (dimer-of-dimers) equilibrium as Pfr; also called P. syringae BphP1; P. syringae BphP; not shown: His6, N-terminal, cleaved

Tests used:
[1] = target: T2, PsAlgB (mixed with PsBphP1) (Pseudomonas syringae group genomosp. 3, UniProt Q88AQ2); details: 1.5 mM ATP, 5 mM MgCl2, pH 7.5, 22 °C, 175 mM KSCN; needs PsBphP1 (Pr or Pfr); authors presume the ATPase is intrinsic to PsAlgB
T2 construct: gene algB

PsBphP1 = target: T1, PsBphP1; details: labelled compound; Pfr under red light; 150 uM ATP, 5 mM MgCl2, pH 7.5, 22 °C; phosphoacceptor His530
[2] = target: the molecule itself; test: cryo-EM structure; PsBphP1 as Pr (dark-adapted), 0.5 mg/mL, 175 mM KSCN, 10 mM 2-mercaptoethanol, 10 mM HEPES-NaOH pH 7.5; head-to-head dimer
[3] = target: the molecule itself; test: cryo-EM structure; PsBphP1 as Pfr (irradiated 10 min with 630-nm LED), 0.5 mg/mL, 175 mM KSCN, 10 mM 2-mercaptoethanol, 10 mM HEPES-NaOH pH 7.5; dimers (medial, splayed) and tetrameric dimer-of-dimers

T2 sequence (Q88AQ2 whole entry, one chain of several): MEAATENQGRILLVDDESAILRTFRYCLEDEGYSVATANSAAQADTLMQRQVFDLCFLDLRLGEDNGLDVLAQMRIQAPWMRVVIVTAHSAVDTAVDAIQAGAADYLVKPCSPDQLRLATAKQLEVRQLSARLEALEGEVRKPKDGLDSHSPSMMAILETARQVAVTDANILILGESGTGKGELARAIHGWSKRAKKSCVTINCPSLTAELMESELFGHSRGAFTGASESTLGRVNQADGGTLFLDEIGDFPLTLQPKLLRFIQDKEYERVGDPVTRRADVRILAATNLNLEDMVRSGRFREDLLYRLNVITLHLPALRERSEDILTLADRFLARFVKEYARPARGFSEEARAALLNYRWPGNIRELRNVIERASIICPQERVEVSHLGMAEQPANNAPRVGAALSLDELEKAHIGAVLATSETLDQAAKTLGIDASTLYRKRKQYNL

Molecule	SEC elution shift of ATP to ADP [1]	autophosphorylation with 32P-ATP, SDS-PAGE and phosphorimaging (PsBphP1)	stoichiometry N [2]	stoichiometry N [3]
Nc1ncnc2c1ncn2[C@@H]1O[C@H](COP(=O)(O)OP(=O)(O)OP(=O)(O)O)[C@@H](O)[C@H]1O [ATP]	the two proteins together elicited robust ATPase activity for PsAlgB	initial autophosphorylation of PsBphP1 required the predicted internal phosphoacceptor His530		
B1			2	4
